Measurements from PMC6268492, “Synthesis and Antiangiogenic Activity of Novel Gambogic Acid Derivatives” (Molecules, 2012).

Tests used:
[1] = test system: transgenic fli-1: enhanced GFP zebrafish embryos; test: Zebrafish embryo assay: antiangiogenic effects; type: in vivo, zebrafish (Danio rerio); conditions: zebrafish embryos
Method: As stated previously, zebrafish is regarded as a powerful tool in the study of human diseases. […] In this study, all GA derivatives were incubated with the transgenic friend leukemia integration-1 (fli-1): enhanced GFP zebrafish embryos which carried a fli-1 promoter which can drive the expression of GFP in the whole endothelium.
Figure 1 Effects on neovascularization in zebrafish embryos. The transgenic fli-1: enhanced GFP zebrafish embryos in embryo water (0.2 g/L of instant ocean salt in distilled water) incubated with 1 μM of compounds at 6 h postfertilization (hpf) for 24 h. Zebrafish embryos were imaged (Imager.Z1, magnification: left, 40×; right, 100×).
Using transgenic fli-1: enhanced GFP zebrafish embryos, we investigated the effects of all compounds on angiogenesis. […] At about 6 h post fertilization (hpf), the embryos were sorted in the 6-well plate (six embryos/well), removing dead and unhealthy embryos. Then the embryos were treated with the indicated concentrations of compounds which were added into embryo water. After incubation for 24 or 48 h, the embryos were anesthetized using 0.05% 2-phenoxyethanol in embryo water, quantified and photographed.

HUVEC = test: MTT assay, cell proliferation; type: cell-based, Human; conditions: Homo sapiens, 24 h, read-out: IC50, inhibition of cell proliferation
Method: Inhibiting the proliferation of ECs is another important strategy for antiangiogenesis. […] As the exposure time of these derivatives was 24 h in the migration assay and 6 h in the tube formation assay, the effect of the incubation for 24 h in the presence of these compounds on HUVECs proliferation was then tested. Cell viability was assessed by the MTT method. We can see from Table 4 that these compounds had different antiproliferative activities.
(§1) HepG2, HCT116, HeLa and LO2 cell lines were cultured in DMEM containing 10% fetal bovine serum (FBS), 100 IU/mL penicillin and 100 µg/mL streptomycin; A549 and K562 cell lines were cultured in RPMI 1640 medium containing 10% fetal bovine serum (FBS), 100 IU/mL penicillin and 100 µg/mL streptomycin; Human umbilical vein endothelial cells (HUVECs) were cultured on gelatin-coated culture flasks in M-199 medium with 20% fetal bovine serum (FBS), 2 ng/mL VEGF, 10 ng/mL basic FGF, 100 IU/mL penicillin, and 100 μg/mL streptomycin; all of them were obtained from the American Type Culture Collection (ATCC) and all cell lines were incubated in an atmosphere of 5% CO2 at 37 °C.
(§2) Cells were treated with various concentrations of compound in 96-well culture plates for 24 h in final volumes of 200 μL (5 × 10^3 cells/well). Then 20 μL of MTT solution (5 mg/mL) was added to each well, and cells were incubated for an additional 3 h. Then the medium was carefully removed, and precipitates were dissolved in 150 μL of DMSO, shaken mechanically for 30 min, and then absorbance values at a wavelength of 570 nm were taken on a spectrophotometer (Molecular Devices, Sunnyvale, CA, USA). Values were calculated using percentage of growth versus untreated control. The IC50 was defined as the concentration that caused 50% inhibition of cell proliferation, and was calculated by SAS statistical software.

K562 = test: MTT assay, cell proliferation; type: cell-based; conditions: Homo sapiens, 24 h, read-out: IC50, inhibition of cell proliferation
Method: as §1, §2

HCT116 = test: MTT assay, cell proliferation; type: cell-based; conditions: Homo sapiens, HCT-116, 24 h, read-out: IC50, inhibition of cell proliferation
Method: as §1, §2

HeLa = test: MTT assay, cell proliferation; type: cell-based; conditions: Homo sapiens, 24 h, read-out: IC50, inhibition of cell proliferation
Method: as §1, §2

A549 = test: MTT assay, cell proliferation; type: cell-based; conditions: Homo sapiens, 24 h, read-out: IC50, inhibition of cell proliferation
Method: as §1, §2

HepG2 = test: MTT assay, cell proliferation; type: cell-based; conditions: Homo sapiens, 24 h, read-out: IC50, inhibition of cell proliferation
Method: as §1, §2

LO2 = test: MTT assay, cytotoxicity; type: cell-based; conditions: Homo sapiens, L02, 24 h, read-out: IC50, inhibition of cell proliferation
Method: as §1, §2

SMILES | antiangiogenic rates ([1]; 1 μM) | inhibition in vivo at 2.5 µM ([1]; Danio rerio, 2.5 μM, vs vehicle (0.05% DMSO), read-out: Anti-angiogenic phenotype) [%] | inhibition in vivo at 10 µM ([1]; Danio rerio, 10 μM, vs vehicle (0.05% DMSO), read-out: Anti-angiogenic phenotype) [%] | IC50 (HUVEC) [µM] | IC50 (K562) [µM] | IC50 (HCT116) [µM] | IC50 (HeLa) [µM] | IC50 (A549) [µM] | IC50 (HepG2) [µM] | IC50 (LO2) [µM]
COc1ccc(-c2csc(NC(=O)/C(C)=C\CC34OC(C)(C)C5CC(C=C6C(=O)c7c(O)c8c(c(CC=C(C)C)c7OC653)OC(C)(CCC=C(C)C)C=C8)C4=O)n2)cc1 (stereo not drawn) [Compound 31, 4-(4-Methoxyphenyl)thiazol-2-gambogamide] | inactive | < 25 | 25 to 50 | 30.2 ± 2.04 | 13.7 ± 0.56 | 18.9 ± 1.34 | 57.9 ± 2.6 | 61.6 ± 1.73 | 49.2 ± 4.31 | 
CC(C)=CCCC1(C)C=Cc2c(O)c3c(c(CC=C(C)C)c2O1)OC12C(=CC4CC1C(C)(C)OC2(C/C=C(/C)C(=O)Sc1nccs1)C4=O)C3=O (stereo not drawn) [Compound 29, S-thiazol-2-yl gambogthioate] |  |  |  | 6.64 ± 0.11 | 0.79 ± 0.06 | 1.63 ± 0.15 | 1.45 ± 0.07 | 0.63 ± 0.01 | 0.85 ± 0.15 | 4.28 ± 0.33
CC(=O)Nc1ccccc1OC(=O)/C(C)=C\CC12OC(C)(C)C3CC(C=C4C(=O)c5c(O)c6c(c(CC=C(C)C)c5OC431)OC(C)(CCC=C(C)C)C=C6)C2=O (stereo not drawn) [Compound 27, 2-Acetamidophenyl gambogate] |  |  |  | 0.5 ± 0.03 | 0.52 ± 0.02 | 1.05 ± 0.07 | 3.51 ± 0.15 | 1.22 ± 0.25 | 0.69 ± 0.08 | 1.52 ± 0.12
CC(=O)c1ccc(OC(=O)/C(C)=C\CC23OC(C)(C)C4CC(C=C5C(=O)c6c(O)c7c(c(CC=C(C)C)c6OC542)OC(C)(CCC=C(C)C)C=C7)C3=O)c([N+](=O)[O-])c1 (stereo not drawn) [Compound 5, 2-Nitro-4-ethanonephenyl gambogate] |  |  |  | 4.39 ± 0.27 | 2.03 ± 0.2 | 5.47 ± 0.24 | 6.37 ± 0.11 | 5.53 ± 0.4 | 9.45 ± 1.42 | 4.03 ± 0.34
CC(C)=CCCC1(C)C=Cc2c(O)c3c(c(CC=C(C)C)c2O1)OC12C(=CC4CC1C(C)(C)OC2(C/C=C(/C)C(=O)Oc1cccc(C)c1[N+](=O)[O-])C4=O)C3=O (stereo not drawn) [Compound 14, 3-Methyl-2-nitrophenyl gambogate] |  |  |  | 42 ± 2.76 | 22.6 ± 0.53 | 34.8 ± 1.84 | > 80 | > 80 | 40.6 ± 2.75 | 70.8 ± 2.47
CC(C)=CCCC1(C)C=Cc2c(O)c3c(c(CC=C(C)C)c2O1)OC12C(=CC4CC1C(C)(C)OC2(C/C=C(/C)C(=O)Oc1cccc(C#N)c1)C4=O)C3=O (stereo not drawn) [Compound 12, 3-Cyanophenyl gambogate] |  |  |  | 7.58 ± 1.36 | 1.79 ± 0.08 | 5.57 ± 0.26 | 7.1 ± 1.43 | 10.7 ± 0.26 | 7.8 ± 0.11 | 5.15 ± 1.19
CC(C)=CCCC1(C)C=Cc2c(O)c3c(c(CC=C(C)C)c2O1)OC12C(=CC4CC1C(C)(C)OC2(C/C=C(/C)C(=O)Oc1cccc([N+](=O)[O-])c1)C4=O)C3=O (stereo not drawn) [Compound 8, 3-Nitrophenyl gambogate] |  |  |  | 77.5 ± 3.65 | 17.9 ± 1.38 | 66.4 ± 1.1 | > 80 | > 80 | > 80 | 
CC(C)=CCCC1(C)C=Cc2c(O)c3c(c(CC=C(C)C)c2O1)OC12C(=CC4CC1C(C)(C)OC2(C/C=C(/C)C(=O)Oc1ccc(C)c([N+](=O)[O-])c1)C4=O)C3=O (stereo not drawn) [Compound 1, 4-Methyl-3-nitrophenyl gambogate] |  |  |  | 45.2 ± 2.64 | 10.2 ± 0.48 | 25.5 ± 1.79 | 32.9 ± 1.69 | 43.5 ± 3.92 | 30.8 ± 2.76 | 
CC(C)=CCCC1(C)C=Cc2c(O)c3c(c(CC=C(C)C)c2O1)OC12C(=CC4CC1C(C)(C)OC2(C/C=C(/C)C(=O)Oc1ccc2ccc(=O)oc2c1)C4=O)C3=O (stereo not drawn) [Compound 7, Coumarin-7-gambogate] |  |  |  | 10.9 ± 0.72 | 2.5 ± 0.12 | 6 ± 0.4 | 16.1 ± 0.55 | 15.4 ± 2.57 | 10.8 ± 1.1 | 8.28 ± 0.33
